Laboratory results: patent US20250296948A1, “SYNTHESIS OF NUCLEOSIDE DERIVATIVES” (Nucana plc, priority 2022, published 2025)

What was measured:
Format in all cases: physicochemical
[1] = 6 month dry powder stability, HPLC assay
Text: (§1) NUC-3373 prepared according to Example 3 and Comparative Example 4 was packed into a transparent LDPE bag which was then filled with nitrogen and tied with a strip seal. This bag was then placed into another transparent LDPE bag which was also filled with nitrogen. A silica gel packet was placed between the two bags before the outermost bag was tied with a strip seal. These bags were then placed in a triple laminated sun light barrier bag which was sealed with a heat sealer. The bags were kept in a HDPE container.
(§2) NUC-3373 was initially assayed by HPLC after manufacture (0 months) then after 1 and 2 and/or 3 and 6 months of storage at 2-8° C., 25° C. or 40° C.

[2] = 6 month dry powder stability, Alpha Naphthol content by HPLC
Text: as §1, §2
The Alpha Naphthol content of the same batches was also determined by HPLC. The levels of the alpha naphthol impurity is a key indicator of stability of the tested material.

[3] = Solution stability, alpha naphthol (0.60 RRT) in DMA:Saline (80:20 v/v); set-up: 0.60 RRT (Alpha Naphthol): unit not given here; settings: 400 mg/mL in DMA:Saline (80:20 v/v)
Experimental: Stability data is also provided in Table 4, which compares the levels of alpha naphthol (0.60 RRT) present in solutions of 400 mg/mL NUC-3373, prepared by Example 3 or 4, above, in DMA:Saline (80:20 v/v) at different temperatures measured over set periods of time. The tested solutions are suitable for infusion and injection and the temperatures and times measured are representative of the environments that solutions suitable for infusion and injection would typically be stored in.
In Table 4 the two values provided for each temperature at each time period, separated by “/”, represent different preparations (samples) of that synthesis.

C[C@H](NP(=O)(OC[C@H]1O[C@@H](n2cc(F)c(=O)[nH]c2=O)CC1O)Oc1cccc2ccccc12)C(=O)OCc1ccccc1 (stereo partly drawn) [Example 3, Batch 1, 5-fluoro-2′-deoxyuridine-5′-O-[1-naphthyl (benzoxy-L-alaninyl)] phosphate]
Decrease after 6 months, HPLC assay ([1]; 2-8 ° C.): None
HPLC assay (% w/w on anhydrous and solvent free basis) ([1]; 2-8 ° C., 0 months): 100.4 % w/w
HPLC assay (% w/w on anhydrous and solvent free basis) ([1]; 2-8 ° C., 3 months): 101.5 % w/w
HPLC assay (% w/w on anhydrous and solvent free basis) ([1]; 2-8 ° C., 6 months): 100.4 % w/w
Decrease after 6 months, HPLC assay ([1]; 25 ° C.): None
HPLC assay (% w/w on anhydrous and solvent free basis) ([1]; 25 ° C., 0 months): 100.4 % w/w
HPLC assay (% w/w on anhydrous and solvent free basis) ([1]; 25 ° C., 3 months): 101.1 % w/w
HPLC assay (% w/w on anhydrous and solvent free basis) ([1]; 25 ° C., 6 months): 100.8 % w/w
Decrease after 6 months, HPLC assay ([1]; 40 ° C.): None
HPLC assay (% w/w on anhydrous and solvent free basis) ([1]; 40 ° C., 0 months): 100.4 % w/w
HPLC assay (% w/w on anhydrous and solvent free basis) ([1]; 40 ° C., 1 month): 100.0 % w/w
HPLC assay (% w/w on anhydrous and solvent free basis) ([1]; 40 ° C., 2 months): 101.5 % w/w
HPLC assay (% w/w on anhydrous and solvent free basis) ([1]; 40 ° C., 3 months): 101.6 % w/w
HPLC assay (% w/w on anhydrous and solvent free basis) ([1]; 40 ° C., 6 months): 100.7 % w/w
Increase after 6 months, Alpha Naphthol by HPLC ([2]; 2-8 ° C.): None
Alpha Naphthol by HPLC (% w/w) ([2]; 2-8 ° C., 0 months): 0.15 % w/w
Alpha Naphthol by HPLC (% w/w) ([2]; 2-8 ° C., 3 months): 0.16 % w/w
Alpha Naphthol by HPLC (% w/w) ([2]; 2-8 ° C., 6 months): 0.15 % w/w
Increase after 6 months, Alpha Naphthol by HPLC ([2]; 25 ° C.): None
Alpha Naphthol by HPLC (% w/w) ([2]; 25 ° C., 0 months): 0.15 % w/w
Alpha Naphthol by HPLC (% w/w) ([2]; 25 ° C., 3 months): 0.15 % w/w
Alpha Naphthol by HPLC (% w/w) ([2]; 25 ° C., 6 months): 0.14 % w/w
Increase after 6 months, Alpha Naphthol by HPLC ([2]; 40 ° C.): None
Alpha Naphthol by HPLC (% w/w) ([2]; 40 ° C., 0 months): 0.15 % w/w
Alpha Naphthol by HPLC (% w/w) ([2]; 40 ° C., 1 month): 0.15 % w/w
Alpha Naphthol by HPLC (% w/w) ([2]; 40 ° C., 2 months): 0.15 % w/w
Alpha Naphthol by HPLC (% w/w) ([2]; 40 ° C., 3 months): 0.14 % w/w
Alpha Naphthol by HPLC (% w/w) ([2]; 40 ° C., 6 months): 0.13 % w/w
0.60 RRT (Alpha Naphthol) ([3]; After 1 month at 2-8° C., first preparation (before "/")): 0.07/0.07
0.60 RRT (Alpha Naphthol) ([3]; After 1 month at 2-8° C., second preparation (after "/")): 0.07/0.07
0.60 RRT (Alpha Naphthol) ([3]; After 1 month at 25 ± 5° C., first preparation (before "/")): 0.08/0.08
0.60 RRT (Alpha Naphthol) ([3]; After 1 month at 25 ± 5° C., second preparation (after "/")): 0.08/0.08
0.60 RRT (Alpha Naphthol) ([3]; After 3 months at 2-8° C., first preparation (before "/")): 0.07/0.07
0.60 RRT (Alpha Naphthol) ([3]; After 3 months at 2-8° C., second preparation (after "/")): 0.07/0.07
0.60 RRT (Alpha Naphthol) ([3]; After 3 months at 25 ± 5° C., first preparation (before "/")): 0.10
0.60 RRT (Alpha Naphthol) ([3]; After 3 months at 25 ± 5° C., second preparation (after "/")): 0.11
0.60 RRT (Alpha Naphthol) ([3]; After 6 months at 2-8° C., first preparation (before "/")): 0.07
0.60 RRT (Alpha Naphthol) ([3]; After 6 months at 2-8° C., second preparation (after "/")): 0.08
0.60 RRT (Alpha Naphthol) ([3]; After 6 months at 25 ± 5° C., first preparation (before "/")): 0.20
0.60 RRT (Alpha Naphthol) ([3]; After 6 months at 25 ± 5° C., second preparation (after "/")): 0.22
0.60 RRT (Alpha Naphthol) ([3]; After 9 months at 2-8° C., first preparation (before "/")): 0.07
0.60 RRT (Alpha Naphthol) ([3]; After 9 months at 2-8° C., second preparation (after "/")): 0.08
0.60 RRT (Alpha Naphthol) ([3]; After 9 months at 25 ± 5° C., first preparation (before "/")): 0.42
0.60 RRT (Alpha Naphthol) ([3]; After 9 months at 25 ± 5° C., second preparation (after "/")): 0.38
0.60 RRT (Alpha Naphthol) ([3]; After 15 days at 2-8° C., first preparation (before "/")): 0.07/0.07
0.60 RRT (Alpha Naphthol) ([3]; After 15 days at 2-8° C., second preparation (after "/")): 0.07/0.07
0.60 RRT (Alpha Naphthol) ([3]; After 15 days at 25 ± 5° C., first preparation (before "/")): 0.07
0.60 RRT (Alpha Naphthol) ([3]; After 15 days at 25 ± 5° C., second preparation (after "/")): 0.08
0.60 RRT (Alpha Naphthol) ([3]; Initial): 0.07

C[C@H](NP(=O)(OC[C@H]1O[C@@H](n2cc(F)c(=O)[nH]c2=O)CC1O)Oc1cccc2ccccc12)C(=O)OCc1ccccc1 (stereo partly drawn) [Example 3, Batch 3, 5-fluoro-2′-deoxyuridine-5′-O-[1-naphthyl (benzoxy-L-alaninyl)] phosphate]
Decrease after 6 months, HPLC assay ([1]; 2-8 ° C.): None
HPLC assay (% w/w on anhydrous and solvent free basis) ([1]; 2-8 ° C., 0 months): 100.3 % w/w
HPLC assay (% w/w on anhydrous and solvent free basis) ([1]; 2-8 ° C., 3 months): 101.9 % w/w
HPLC assay (% w/w on anhydrous and solvent free basis) ([1]; 2-8 ° C., 6 months): 100.5 % w/w
Decrease after 6 months, HPLC assay ([1]; 25 ° C.): None
HPLC assay (% w/w on anhydrous and solvent free basis) ([1]; 25 ° C., 0 months): 100.3 % w/w
HPLC assay (% w/w on anhydrous and solvent free basis) ([1]; 25 ° C., 3 months): 101.8 % w/w
HPLC assay (% w/w on anhydrous and solvent free basis) ([1]; 25 ° C., 6 months): 101.0 % w/w
Decrease after 6 months, HPLC assay ([1]; 40 ° C.): None
HPLC assay (% w/w on anhydrous and solvent free basis) ([1]; 40 ° C., 0 months): 100.3 % w/w
HPLC assay (% w/w on anhydrous and solvent free basis) ([1]; 40 ° C., 1 month): 100.6 % w/w
HPLC assay (% w/w on anhydrous and solvent free basis) ([1]; 40 ° C., 2 months): 101.5 % w/w
HPLC assay (% w/w on anhydrous and solvent free basis) ([1]; 40 ° C., 3 months): 102.2 % w/w
HPLC assay (% w/w on anhydrous and solvent free basis) ([1]; 40 ° C., 6 months): 100.8 % w/w
Increase after 6 months, Alpha Naphthol by HPLC ([2]; 2-8 ° C.): None
Alpha Naphthol by HPLC (% w/w) ([2]; 2-8 ° C., 0 months): 0.18 % w/w
Alpha Naphthol by HPLC (% w/w) ([2]; 2-8 ° C., 3 months): 0.18 % w/w
Alpha Naphthol by HPLC (% w/w) ([2]; 2-8 ° C., 6 months): 0.17 % w/w
Increase after 6 months, Alpha Naphthol by HPLC ([2]; 25 ° C.): None
Alpha Naphthol by HPLC (% w/w) ([2]; 25 ° C., 0 months): 0.18 % w/w
Alpha Naphthol by HPLC (% w/w) ([2]; 25 ° C., 3 months): 0.18 % w/w
Alpha Naphthol by HPLC (% w/w) ([2]; 25 ° C., 6 months): 0.17 % w/w
Increase after 6 months, Alpha Naphthol by HPLC ([2]; 40 ° C.): None
Alpha Naphthol by HPLC (% w/w) ([2]; 40 ° C., 0 months): 0.18 % w/w
Alpha Naphthol by HPLC (% w/w) ([2]; 40 ° C., 1 month): 0.17 % w/w
Alpha Naphthol by HPLC (% w/w) ([2]; 40 ° C., 2 months): 0.17 % w/w
Alpha Naphthol by HPLC (% w/w) ([2]; 40 ° C., 3 months): 0.17 % w/w
Alpha Naphthol by HPLC (% w/w) ([2]; 40 ° C., 6 months): 0.15 % w/w
